According to patent publication US7351708B2, “Pyrrolo [2,3-b] pyridine derivatives” (Hoffmann-La Roche Inc., priority 2005, dated 2008):

Biological target: T1, histamine 3 receptor (H3R) (Homo sapiens, UniProt Q9Y5N1)
T1 construct: expressed in transfected cells; host or cells: CHO cells (HR3-CHO cell line), membranes
Experiment: Binding assay with 3H-(R)α-Methylhistamine (competition binding, membranes of the human HR3-CHO cell line)
Conditions: competition against 3H(R)α-Methylhistamine (1 nM), Ki calculated from IC50 by Cheng-Prusoff
Protocol: Binding Assay with ^3H—(R)α-Methylhistamine
Saturation binding experiments were performed using HR3-CHO membranes prepared as described in Takahashi, K, Tokita, S., Kotani, H. (2003) J. Pharmacol. Exp. Therapeutics 307, 213-218.
An appropriate amount of membrane (60 to 80 μg protein/well) was incubated with increasing concentrations of ^3H(R)α-Methylhistamine di-hydrochloride (0.10 to 10 nM). Non specific binding was determined using a 200 fold excess of cold (R)α-Methylhistamine dihydrobromide (500 nM final concentration). The incubation was carried out at room temperature (in deep-well plates shaking for three hours). The final volume in each well was 250 μl. The incubation was followed by rapid filtration on GF/B filters (pre-soaked with 100 μl of 0.5% PEI in Tris 50 mM shaking at 200 rpm for two hours). The filtration was made using a cell-harvester and the filter plates were then washed five times with ice cold washing buffer containing 0.5 M NaCl. After harvesting, the plates were dried at 55° C. for 60 min, then we added scintillation fluid (Microscint 40, 40 microl in each well) and the amount of radioactivity on the filter was determined in Packard top-counter after shaking the plates for two hours at 200 rpm at room temperature.
Binding Buffer: 50 mM Tris-HCl pH 7.4 and 5 mM MgCl2x 6H2O pH 7.4. Washing Buffer: 50 mM Tris-HCl pH 7.4 and 5 mM MgCl2x6H2O and 0.5 M NaCl pH 7.4.
Indirect measurement of affinity of H3R inverse agonists: twelve increasing concentrations (ranging from 10 μM to 0.3 nM) of the selected compounds were always tested in competition binding experiments using membrane of the human HR3-CHO cell line. An appropriate amount of protein, e.g. approximately 500 cpm binding of RAMH at Kd, were incubated for 1 hour at room temperature in 250 μl final volume in 96-well plates in presence of ^3H(R)α-Methylhistamine (1 nM final concentration=Kd). […]
All compounds were tested at a single concentration in duplicates. […] Ki's were calculated from IC50 based on Cheng-Prusoff equation (Cheng, Y, Prusoff, WH (1973) Biochem Pharmacol 22, 3099-3108).

T1 sequence (Q9Y5N1 whole entry): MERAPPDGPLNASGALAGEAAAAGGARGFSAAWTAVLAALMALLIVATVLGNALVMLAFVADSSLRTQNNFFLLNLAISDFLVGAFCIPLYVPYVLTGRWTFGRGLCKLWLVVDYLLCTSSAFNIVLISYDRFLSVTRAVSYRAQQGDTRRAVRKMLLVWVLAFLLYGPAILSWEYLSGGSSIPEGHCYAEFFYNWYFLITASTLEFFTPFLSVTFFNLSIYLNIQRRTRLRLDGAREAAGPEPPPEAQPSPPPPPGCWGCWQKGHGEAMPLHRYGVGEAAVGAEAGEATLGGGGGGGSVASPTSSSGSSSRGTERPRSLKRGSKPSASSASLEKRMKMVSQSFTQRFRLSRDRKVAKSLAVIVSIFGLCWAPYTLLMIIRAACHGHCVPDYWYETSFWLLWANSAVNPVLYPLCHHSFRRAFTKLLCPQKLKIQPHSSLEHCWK

Ki [nM] | SMILES
48.4 | O=C(c1cc2ccc(N3CCN(C4CCCC4)CC3)nc2[nH]1)N1CCCCC1 [Example 1, [6-(4-Cyclopentyl-piperazin-1-yl)-1H-pyrrolo[2,3-b]pyridin-2-yl]-piperidin-1-yl-methanone]
22.7 | O=C(NC1CCCCC1)c1cc2ccc(N3CCN(C4CCCC4)CC3)nc2[nH]1 [Example 4, 6-(4-cyclopentyl-piperazin-1-yl)-1H-pyrrolo[2,3-b]pyridine-2-carboxylic acid cyclohexylamide]
83.1 | O=C(c1cc2ccc(N3CCN(C4CCCC4)CC3)nc2[nH]1)N1CCC(O)C1 (stereo not drawn) [Example 8, [6-(4-cyclopentyl-piperazin-1-yl)-1H-pyrrolo[2,3-b]pyridin-2-yl]-(3-hydroxy-pyrrolidin-1-yl)-methanone]
